# Columns and labels:
# [1] = target: RSK3(Kin.Dom.2-C-terminal) (Homo sapiens, UniProt Q15349); conditions: 0.1 µM; binder
# [2] = target: JAK3(JH1domain-catalytic) (Homo sapiens, UniProt P52333); conditions: 0.1 µM; binder
# [3] = target: RSK3(Kin.Dom.1-N-terminal) (Homo sapiens, UniProt Q15349); conditions: 0.1 µM; binder
# [4] = target: RSK4(Kin.Dom.2-C-terminal) (Homo sapiens, UniProt Q9UK32); conditions: 0.1 µM; binder
# [5] = target: GCN2(Kin.Dom.2,S808G) (Homo sapiens, UniProt Q9P2K8, S808G); conditions: 0.1 µM; binder
# [6] = target: RPS6KA5(Kin.Dom.2-C-terminal) (Homo sapiens, UniProt O75582); conditions: 0.1 µM; binder
# [7] = target: RSK1(Kin.Dom.1-N-terminal) (Homo sapiens, UniProt Q15418); conditions: 0.1 µM; binder
# [8] = target: RPS6KA4(Kin.Dom.2-C-terminal) (Homo sapiens, UniProt O75676); conditions: 0.1 µM; binder
# [9] = target: JAK2(JH1domain-catalytic) (Homo sapiens, UniProt O60674); conditions: 0.1 µM; binder
# [10] = target: PFPK5(P. falciparum) (Plasmodium falciparum, UniProt P61075); conditions: 1 µM; binder
# [11] = target: ABL1-phosphorylated (Homo sapiens, UniProt P00519); conditions: 1 µM; binder
# [12] = target: BRSK1 (Homo sapiens, UniProt Q8TDC3); conditions: 1 µM; binder
# [13] = target: CDK3 (Homo sapiens, UniProt Q00526); conditions: 1 µM; binder
# Sequence of CDK3 (Q00526 whole entry): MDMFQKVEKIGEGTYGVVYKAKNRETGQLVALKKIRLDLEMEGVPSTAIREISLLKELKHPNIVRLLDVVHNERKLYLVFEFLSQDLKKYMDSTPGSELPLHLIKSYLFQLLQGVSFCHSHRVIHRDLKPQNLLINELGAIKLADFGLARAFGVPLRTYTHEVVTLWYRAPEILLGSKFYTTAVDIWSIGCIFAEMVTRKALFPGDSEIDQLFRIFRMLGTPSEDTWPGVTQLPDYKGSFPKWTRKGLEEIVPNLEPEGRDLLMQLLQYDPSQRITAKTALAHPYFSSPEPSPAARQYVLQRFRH
# [14] = target: CLK4 (Homo sapiens, UniProt Q9HAZ1); conditions: 1 µM; binder
# Sequence of CLK4 (Q9HAZ1 whole entry): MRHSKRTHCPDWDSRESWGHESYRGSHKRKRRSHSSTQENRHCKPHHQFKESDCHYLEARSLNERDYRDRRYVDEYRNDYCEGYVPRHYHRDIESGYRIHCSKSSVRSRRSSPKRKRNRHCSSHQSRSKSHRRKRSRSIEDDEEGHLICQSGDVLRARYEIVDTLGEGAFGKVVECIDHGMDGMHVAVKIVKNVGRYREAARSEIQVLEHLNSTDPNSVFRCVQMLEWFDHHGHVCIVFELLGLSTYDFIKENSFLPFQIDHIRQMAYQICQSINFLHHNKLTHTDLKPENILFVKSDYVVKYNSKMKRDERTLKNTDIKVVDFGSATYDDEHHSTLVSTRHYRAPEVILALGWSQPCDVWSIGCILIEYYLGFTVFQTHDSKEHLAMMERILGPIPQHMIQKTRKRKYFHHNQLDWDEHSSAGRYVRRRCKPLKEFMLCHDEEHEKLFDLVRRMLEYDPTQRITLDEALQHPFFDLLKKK
# [15] = target: CSF1R (Homo sapiens, UniProt P07333); conditions: 1 µM; binder
# Sequence of CSF1R (P07333 whole entry): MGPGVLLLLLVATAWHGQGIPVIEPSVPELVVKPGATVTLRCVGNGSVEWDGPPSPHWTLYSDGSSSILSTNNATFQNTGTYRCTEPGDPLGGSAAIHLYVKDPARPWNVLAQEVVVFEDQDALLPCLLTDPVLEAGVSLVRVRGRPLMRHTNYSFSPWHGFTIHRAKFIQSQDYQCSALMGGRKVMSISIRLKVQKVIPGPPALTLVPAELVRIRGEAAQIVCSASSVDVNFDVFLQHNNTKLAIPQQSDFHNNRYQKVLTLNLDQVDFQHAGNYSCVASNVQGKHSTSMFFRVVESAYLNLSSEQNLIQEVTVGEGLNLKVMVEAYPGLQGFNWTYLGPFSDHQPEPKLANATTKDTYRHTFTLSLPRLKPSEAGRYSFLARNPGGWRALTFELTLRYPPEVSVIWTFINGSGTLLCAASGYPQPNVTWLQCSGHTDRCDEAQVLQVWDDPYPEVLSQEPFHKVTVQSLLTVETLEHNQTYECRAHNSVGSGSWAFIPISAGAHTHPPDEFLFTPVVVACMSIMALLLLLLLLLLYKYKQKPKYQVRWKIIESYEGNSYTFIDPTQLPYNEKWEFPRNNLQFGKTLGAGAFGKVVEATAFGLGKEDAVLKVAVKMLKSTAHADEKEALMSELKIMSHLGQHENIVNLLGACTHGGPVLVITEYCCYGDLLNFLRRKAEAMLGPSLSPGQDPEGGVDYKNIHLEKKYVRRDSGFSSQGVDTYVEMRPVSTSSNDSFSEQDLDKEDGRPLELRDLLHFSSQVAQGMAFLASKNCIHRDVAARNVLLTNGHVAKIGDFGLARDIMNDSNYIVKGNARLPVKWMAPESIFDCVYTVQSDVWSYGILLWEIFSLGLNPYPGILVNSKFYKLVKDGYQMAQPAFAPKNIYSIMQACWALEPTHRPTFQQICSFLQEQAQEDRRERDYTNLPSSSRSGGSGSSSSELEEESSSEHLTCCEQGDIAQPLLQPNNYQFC
# [16] = target: DRAK2 (Homo sapiens, UniProt O94768); conditions: 1 µM; binder
# Sequence of DRAK2 (O94768 whole entry): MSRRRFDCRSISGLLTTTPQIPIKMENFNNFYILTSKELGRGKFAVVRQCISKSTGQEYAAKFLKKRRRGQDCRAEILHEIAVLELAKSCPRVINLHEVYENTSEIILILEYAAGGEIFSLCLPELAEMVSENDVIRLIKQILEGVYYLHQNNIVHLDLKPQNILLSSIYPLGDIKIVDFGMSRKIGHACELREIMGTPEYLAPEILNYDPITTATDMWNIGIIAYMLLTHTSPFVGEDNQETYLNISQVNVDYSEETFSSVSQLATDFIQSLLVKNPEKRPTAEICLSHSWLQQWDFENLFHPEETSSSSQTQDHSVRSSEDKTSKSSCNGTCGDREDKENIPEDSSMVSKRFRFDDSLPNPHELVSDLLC
# [17] = target: KIT(D816V) (Homo sapiens, UniProt P10721, D816V); conditions: 1 µM; binder
# [18] = target: LKB1 (Homo sapiens, UniProt Q15831); conditions: 1 µM; binder
# [19] = target: MAP4K3 (Homo sapiens, UniProt Q8IVH8); conditions: 1 µM; binder
# [20] = target: PCTK3 (Homo sapiens, UniProt Q07002); conditions: 1 µM; binder
# [21] = target: PRKD3 (Homo sapiens, UniProt O94806); conditions: 1 µM; binder
# [22] = target: STK39 (Homo sapiens, UniProt Q9UEW8); conditions: 1 µM; binder
# [23] = target: TAOK1 (Homo sapiens, UniProt Q7L7X3); conditions: 1 µM; binder
# Sequence of TAOK1 (Q7L7X3 whole entry): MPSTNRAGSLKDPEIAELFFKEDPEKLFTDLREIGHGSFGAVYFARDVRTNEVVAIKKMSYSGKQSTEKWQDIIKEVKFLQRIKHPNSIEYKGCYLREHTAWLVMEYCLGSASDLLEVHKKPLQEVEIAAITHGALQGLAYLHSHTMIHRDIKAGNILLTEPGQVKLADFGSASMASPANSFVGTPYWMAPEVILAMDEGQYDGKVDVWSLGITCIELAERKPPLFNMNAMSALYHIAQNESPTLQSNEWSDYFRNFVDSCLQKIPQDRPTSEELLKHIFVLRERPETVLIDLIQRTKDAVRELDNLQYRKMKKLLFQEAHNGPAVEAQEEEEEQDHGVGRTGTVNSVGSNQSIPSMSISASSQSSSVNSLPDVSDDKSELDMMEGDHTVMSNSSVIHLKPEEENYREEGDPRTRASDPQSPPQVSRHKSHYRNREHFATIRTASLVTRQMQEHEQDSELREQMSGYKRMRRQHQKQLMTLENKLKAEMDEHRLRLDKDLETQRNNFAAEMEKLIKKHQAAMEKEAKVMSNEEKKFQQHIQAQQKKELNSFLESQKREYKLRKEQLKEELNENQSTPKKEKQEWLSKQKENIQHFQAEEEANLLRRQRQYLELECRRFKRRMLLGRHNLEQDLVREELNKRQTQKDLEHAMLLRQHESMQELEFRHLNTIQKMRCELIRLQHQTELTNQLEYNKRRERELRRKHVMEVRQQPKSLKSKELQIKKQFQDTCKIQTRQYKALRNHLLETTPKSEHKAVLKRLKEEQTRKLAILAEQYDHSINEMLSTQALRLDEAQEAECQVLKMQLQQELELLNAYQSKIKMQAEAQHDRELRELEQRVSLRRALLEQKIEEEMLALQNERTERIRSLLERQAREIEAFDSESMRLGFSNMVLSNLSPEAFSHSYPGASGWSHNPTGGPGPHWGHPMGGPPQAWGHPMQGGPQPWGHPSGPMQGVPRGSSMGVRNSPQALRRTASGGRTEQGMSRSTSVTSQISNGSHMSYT
# [24] = target: TRKC (Homo sapiens, UniProt Q16288); conditions: 1 µM; binder
# [25] = target: VRK2 (Homo sapiens, UniProt Q86Y07); conditions: 1 µM; binder
# [26] = target: WNK3 (Homo sapiens, UniProt Q9BYP7); conditions: 1 µM; binder
# Sequence of WNK3 (Q9BYP7 whole entry): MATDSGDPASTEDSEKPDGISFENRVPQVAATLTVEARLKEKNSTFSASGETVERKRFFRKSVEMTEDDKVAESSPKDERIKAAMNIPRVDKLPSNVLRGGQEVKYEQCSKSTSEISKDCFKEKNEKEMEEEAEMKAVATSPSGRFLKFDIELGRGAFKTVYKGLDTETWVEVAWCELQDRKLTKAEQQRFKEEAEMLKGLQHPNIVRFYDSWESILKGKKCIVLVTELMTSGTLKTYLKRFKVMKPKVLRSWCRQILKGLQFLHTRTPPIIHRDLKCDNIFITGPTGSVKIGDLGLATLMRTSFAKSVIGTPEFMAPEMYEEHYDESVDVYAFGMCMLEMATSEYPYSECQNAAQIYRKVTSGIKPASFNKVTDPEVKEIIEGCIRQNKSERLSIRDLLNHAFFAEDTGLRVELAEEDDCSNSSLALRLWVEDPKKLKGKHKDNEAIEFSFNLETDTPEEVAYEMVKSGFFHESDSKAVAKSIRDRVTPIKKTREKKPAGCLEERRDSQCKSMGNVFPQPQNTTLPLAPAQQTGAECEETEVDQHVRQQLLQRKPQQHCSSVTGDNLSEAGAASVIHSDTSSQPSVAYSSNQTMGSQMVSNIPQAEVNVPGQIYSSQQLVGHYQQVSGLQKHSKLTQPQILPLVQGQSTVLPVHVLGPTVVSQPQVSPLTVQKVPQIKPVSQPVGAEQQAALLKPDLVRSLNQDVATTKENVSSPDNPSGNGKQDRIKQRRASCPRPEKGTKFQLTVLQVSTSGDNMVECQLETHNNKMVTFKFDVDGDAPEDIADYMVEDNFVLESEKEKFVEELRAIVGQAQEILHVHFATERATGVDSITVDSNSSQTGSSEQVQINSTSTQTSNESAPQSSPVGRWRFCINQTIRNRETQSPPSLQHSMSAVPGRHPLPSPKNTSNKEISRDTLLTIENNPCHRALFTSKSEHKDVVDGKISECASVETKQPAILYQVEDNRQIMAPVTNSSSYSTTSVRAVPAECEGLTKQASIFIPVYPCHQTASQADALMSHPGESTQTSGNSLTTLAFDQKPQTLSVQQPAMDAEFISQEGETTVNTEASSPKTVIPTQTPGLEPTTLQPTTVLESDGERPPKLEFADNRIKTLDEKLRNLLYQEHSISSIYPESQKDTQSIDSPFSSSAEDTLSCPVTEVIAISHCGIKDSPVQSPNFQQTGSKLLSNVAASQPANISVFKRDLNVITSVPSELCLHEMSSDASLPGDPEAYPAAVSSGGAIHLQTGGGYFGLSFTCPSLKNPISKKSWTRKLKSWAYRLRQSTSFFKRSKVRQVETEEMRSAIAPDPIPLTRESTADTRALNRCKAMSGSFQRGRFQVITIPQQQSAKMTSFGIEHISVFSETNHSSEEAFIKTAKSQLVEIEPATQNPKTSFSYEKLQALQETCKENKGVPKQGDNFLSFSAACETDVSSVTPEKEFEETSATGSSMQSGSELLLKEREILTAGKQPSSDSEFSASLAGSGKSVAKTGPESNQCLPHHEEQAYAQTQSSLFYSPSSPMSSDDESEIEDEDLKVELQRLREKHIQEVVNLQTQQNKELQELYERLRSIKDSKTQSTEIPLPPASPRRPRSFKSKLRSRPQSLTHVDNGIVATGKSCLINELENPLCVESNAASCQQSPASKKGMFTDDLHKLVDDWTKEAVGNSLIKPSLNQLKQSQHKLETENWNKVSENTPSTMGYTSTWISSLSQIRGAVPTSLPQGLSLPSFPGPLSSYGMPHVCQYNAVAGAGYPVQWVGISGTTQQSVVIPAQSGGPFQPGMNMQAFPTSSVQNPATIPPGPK
# [27] = target: PKNB (M. tuberculosis) (Mycobacterium tuberculosis, UniProt P9WI81); conditions: 1 µM; binder
# [28] = target: DYRK1B (Homo sapiens, UniProt Q9Y463); assay: biochemical; conditions: read-out: Percent Control
# [29] = target: LTK (Homo sapiens, UniProt P29376); assay: biochemical; conditions: read-out: Percent Control
smiles,measurement,setting,value
"CNc1ncc2cc(-c3ccc(-c4cccc(C)n4)cc3Cl)c(=O)n(C[C@H]3OC[C@H](N)CO3)c2n1 [compound 6, G-5555]",Percent Control,[1],100%
same,Percent Control,[2],100%
same,Percent Control,[3],100%
same,Percent Control,[4],100%
same,Percent Control,[5],76%
same,Percent Control,[6],100%
same,Percent Control,[7],79%
same,Percent Control,[8],100%
same,Percent Control,[9],99%
same,Percent Control,[10],100%
same,Percent Control,[11],95%
same,Percent Control,[12],100%
same,Percent Control,[13],100%
same,Percent Control,[14],100%
same,Percent Control,[15],92%
same,Percent Control,[16],100%
same,Percent Control,[17],100%
same,Percent Control,[18],100%
same,Percent Control,[19],23%
same,Percent Control,[20],100%
same,Percent Control,[21],20%
same,Percent Control,[22],100%
same,Percent Control,[23],87%
same,Percent Control,[24],96%
same,Percent Control,[25],100%
same,Percent Control,[26],100%
same,Percent Control,[27],51%
same,remaining activity at 0.1 µM,[28],61%
same,remaining activity at 0.1 µM,[29],28%
